Values joined by “and” are separate entries in the source; they are usually repeats but may differ in a detail not shown here. Equal values may be shown once. One block for each compound: values may come before it.
Test system: 931267-113-T-J1-PDC multicell spheroid viability
Assay: Anticancer human tumor 931267-113-T-J1-PDC patient-derived colon adenocarcinoma cell line growth inhibition [PI3K]
Settings: for viability, T/C: stronger effect = lower value
From the text: Combinatorial screen of targeted agents with the PI3K inhibitors inavolisib, alpelisib, duvelisib, and copanlisib in multi-cell type tumor spheroids
A high-throughput screen of multi-cell type tumor spheroids was designed to identify active combinations of targeted small molecules and PI3K pathway inhibitors. Complex spheroids include a stromal component modeled by human endothelial cells (HUVEC) and fibroblasts modeled by human mesenchymal stem cells (MSCs). The concentration ranges selected for each drug and investigational agent were based upon clinically achievable concentrations if the clinical Cmax of the agent was known.
Compounds. The drugs and investigational agents: inavolisib (NSC800729), alpelisib (NSC765974), duvelisib (NSC772469), copanlisib (NSC816437), ipatasertib (NSC767898), afuresertib (NSC778305), talazoparib (NSC767125), sapanisertib (NSC764658), selumetinib (NSC741078), tovorafenib (DAY101, NSC766906), vemurafenib (NSC761431), ravoxertinib (NSC781343), sotorasib (NSC818433), MRTX1133 (NSC 836407), abemaciclib (NSC 768073), palbociclib (NSC758247), venetoclax (NSC 766270), SY5609 (NSC837396), enzalutamide (NSC755605), and darolutamide (NSC825331), were obtained from the National Cancer Institute (NCI) Developmental Therapeutics Program Chemical Repository. The FDA-approved anticancer drug set is available from the NCI Developmental Therapeutics Program. […] The stock solutions were prepared in dimethyl sulfoxide (DMSO, Sigma-Aldrich, St. Louis, MO, cat. D2650) at 800-fold the tested concentration and stored at -70 degrees C prior to their use. All drugs and investigational agents were tested over a range starting from a high concentration at or near the clinical Cmax and decreasing in half-log increments. If the clinical Cmax for an agent had not been determined, the highest concentration tested was 10 microM.
Cell Culture. All cells were maintained in an incubator at 37 degrees C and 5% CO2 with 95% humidity. The PDC lines were cultured according to standard operating procedures established by the NCI PDMR (https://pdmr.cancer.gov/sops/default.htm). All PDCs were thawed and cultured in Matrigel-coated flasks prepared with a working solution of 1X Ham's F-12 nutrient mix, without supplementation (Invitrogen, Waltham, MA, cat. 11765054), 100 U/mL penicillin-streptomycin (Invitrogen, cat. 15140122), and 2.5% Matrigel (Corning Inc., Corning, NY, cat. 354248) for the first three passages. The 354836-022-R-J1-PDC, 475296-252-R-J1-PDC, and 997726-040-R-J2-PDC lines were cultured in 6A media, which includes advanced DMEM/F-12 (Thermo Fisher Scientific, cat. 12634028), 10 mM HEPES (Thermo Fisher Scientific, cat. 15630080), 1X GlutaMAX supplement (Thermo Fisher Scientific, cat. 35050061), 0.1 mg/mL primocin (InvivoGen, San Diego, CA, cat. ant-pm-2), 10% defined fetal bovine serum, heat inactivated (HyClone Laboratories Inc., Logan, UT, cat. SH30070.03HI), 50% L-WRN conditioned media (ATCC, cat. CRL-3276), 1.25 mM N-Acetyl-L-cysteine (Sigma-Aldrich, cat. A9165), 10 mM nicotinamide (Sigma-Aldrich, cat. N0636), 1X B-27 supplement (Thermo Fisher Scientific, cat. 17504044), 1X N-2 supplement (Thermo Fisher Scientific, cat. 17502048), and 10 microM Y-27632 dihydrochloride (Tocris Bioscience, Bristol, United Kingdom, cat. 1254). The 624824-186-R-J2-PDC line was cultured in 6C/Colon 1B media, which includes all 6A media components plus 50 ng/mL human EGF recombinant protein (Thermo Fisher Scientific, cat. PHG0311). […]

[1] = curve of first compound, second compound 0.00316 µM
[2] = curve of first compound, second compound 0.01 µM
[3] = curve of first compound, second compound 0.0316 µM
[4] = curve of first compound, second compound 0.1 µM
[5] = curve of first compound, second compound 0.316 µM
[6] = curve of first compound, second compound 1 µM
[7] = second compound 0.00316 µM, first compound 0.0316 µM
[8] = second compound 0.00316 µM, first compound 0.1 µM
[9] = second compound 0.01 µM, first compound 0.0316 µM
[10] = second compound 0.01 µM, first compound 0.1 µM
[11] = second compound 0.0316 µM, first compound 0.0316 µM
[12] = second compound 0.0316 µM, first compound 0.1 µM
[13] = second compound 0.1 µM, first compound 0.0316 µM
[14] = second compound 0.1 µM, first compound 0.1 µM
[15] = second compound 0.316 µM, first compound 0.0316 µM
[16] = second compound 0.316 µM, first compound 0.1 µM
[17] = second compound 1 µM, first compound 0.0316 µM
[18] = second compound 1 µM, first compound 0.1 µM
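Also: viability read 7 days after compound addition.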

Structure (SMILES): Cn1ncnc1[C@H]1c2n[nH]c(=O)c3cc(F)cc(c23)N[C@@H]1c1ccc(F)cc1 + CC(Nc1ccc2c(c1)OCCn1cc(N3C(=O)OCC3C(F)F)nc1-2)C(N)=O
- IC50 [1]: > 0.1 µM
- IC50 [2]: > 0.1 µM
- IC50 [3]: > 0.1 µM
- IC50 [4]: > 0.1 µM
- IC50 [5]: > 0.1 µM
- IC50 [6]: > 0.1 µM
- viability, T/C (second compound 0.00316 µM, first compound 0.000316 µM): 98.5%
- viability, T/C (second compound 0.00316 µM, first compound 0.001 µM): 113%
- viability, T/C (second compound 0.00316 µM, first compound 0.00316 µM): 104%
- viability, T/C (second compound 0.00316 µM, first compound 0.01 µM): 111%
- viability, T/C [7]: 103%
- viability, T/C [8]: 102%
- viability, T/C (second compound 0.01 µM, first compound 0.000316 µM): 114%
- viability, T/C (second compound 0.01 µM, first compound 0.001 µM): 108%
- viability, T/C (second compound 0.01 µM, first compound 0.00316 µM): 91.5%
- viability, T/C (second compound 0.01 µM, first compound 0.01 µM): 114%
- viability, T/C [9]: 104%
- viability, T/C [10]: 108%
- viability, T/C (second compound 0.0316 µM, first compound 0.000316 µM): 109%
- viability, T/C (second compound 0.0316 µM, first compound 0.001 µM): 96.9%
- viability, T/C (second compound 0.0316 µM, first compound 0.00316 µM): 105%
- viability, T/C (second compound 0.0316 µM, first compound 0.01 µM): 103%
- viability, T/C [11]: 108%
- viability, T/C [12]: 102%
- viability, T/C (second compound 0.1 µM, first compound 0.000316 µM): 101%
- viability, T/C (second compound 0.1 µM, first compound 0.001 µM): 87.5%
- viability, T/C (second compound 0.1 µM, first compound 0.00316 µM): 86.1%
- viability, T/C (second compound 0.1 µM, first compound 0.01 µM): 89.1%
- viability, T/C [13]: 95.2%
- viability, T/C [14]: 87%
- viability, T/C (second compound 0.316 µM, first compound 0.000316 µM): 95.6%
- viability, T/C (second compound 0.316 µM, first compound 0.001 µM): 89.6%
- viability, T/C (second compound 0.316 µM, first compound 0.00316 µM): 81.2%
- viability, T/C (second compound 0.316 µM, first compound 0.01 µM): 80.4%
- viability, T/C [15]: 85.1%
- viability, T/C [16]: 94.1%
- viability, T/C (second compound 1 µM, first compound 0.000316 µM): 78.2%
- viability, T/C (second compound 1 µM, first compound 0.001 µM): 82%
- viability, T/C (second compound 1 µM, first compound 0.00316 µM): 80.7%
- viability, T/C (second compound 1 µM, first compound 0.01 µM): 76.9%
- viability, T/C [17]: 84.6%
- viability, T/C [18]: 73.6%

Structure (SMILES): CC1(C)CCC(CN2CCN(c3ccc(C(=O)NS(=O)(=O)c4ccc(NCC5CCOCC5)c([N+](=O)[O-])c4)c(Oc4cnc5[nH]ccc5c4)c3)CC2)=C(c2ccc(Cl)cc2)C1
- viability, T/C (compound 0.0316 µM): 97.9% [middle of 4 runs]
- viability, T/C (compound 0.1 µM): 95.5% [middle of 4 runs]
- viability, T/C (compound 0.316 µM): 106% [middle of 4 runs]
- viability, T/C (compound 1 µM): 103% [middle of 4 runs]
- viability, T/C (compound 3.16 µM): 93.7% and 104% and 105% (2×)

Structure (SMILES): CC(C)NCC(C(=O)N1CCN(c2ncnc3c2C(C)CC3O)CC1)c1ccc(Cl)cc1 (stereo not drawn)
- viability, T/C (compound 0.0316 µM): 99.5% [middle of 4 runs]
- viability, T/C (compound 0.1 µM): 95.4% [middle of 4 runs]
- viability, T/C (compound 0.316 µM): 98.5% [middle of 4 runs]
- viability, T/C (compound 1 µM): 99.6% [middle of 4 runs]
- viability, T/C (compound 3.16 µM): 89.5% [middle of 4 runs]
- viability, T/C (compound 10 µM): 80.2% [middle of 4 runs]
- IC50 (curve of compound): > 10 µM

Continued, in another order:

- IC50 [1]: > 10 µM
- IC50 [2]: > 10 µM
- IC50 [3]: > 10 µM
- IC50 [4]: > 10 µM
- IC50 [5]: > 10 µM
- IC50 [6]: > 10 µM
Structure (SMILES): CNC(=O)c1ccc(N2C(=S)N(c3ccc(C#N)c(C(F)(F)F)c3)C(=O)C2(C)C)cc1F + CC(Nc1ccc2c(c1)OCCn1cc(N3C(=O)OCC3C(F)F)nc1-2)C(N)=O
- viability, T/C [7]: 99%
- viability, T/C [8]: 102%
- viability, T/C (second compound 0.00316 µM, first compound 0.316 µM): 85.9%
- viability, T/C (second compound 0.00316 µM, first compound 1 µM): 111%
- viability, T/C (second compound 0.00316 µM, first compound 3.16 µM): 119%
- viability, T/C (second compound 0.00316 µM, first compound 10 µM): 106%
- viability, T/C [9]: 107%
- viability, T/C [10]: 93.2%
- viability, T/C (second compound 0.01 µM, first compound 0.316 µM): 107%
- viability, T/C (second compound 0.01 µM, first compound 1 µM): 106%
- viability, T/C (second compound 0.01 µM, first compound 3.16 µM): 99.8%
- viability, T/C (second compound 0.01 µM, first compound 10 µM): 109%
- viability, T/C [11]: 97.2%
- viability, T/C [12]: 90.2%
- viability, T/C (second compound 0.0316 µM, first compound 0.316 µM): 96.4%
- viability, T/C (second compound 0.0316 µM, first compound 1 µM): 90.1%
- viability, T/C (second compound 0.0316 µM, first compound 3.16 µM): 95.1%
- viability, T/C (second compound 0.0316 µM, first compound 10 µM): 87.6%
- viability, T/C [13]: 98.4%
- viability, T/C [14]: 88.5%
- viability, T/C (second compound 0.1 µM, first compound 0.316 µM): 92.2%
- viability, T/C (second compound 0.1 µM, first compound 1 µM): 81.9%
- viability, T/C (second compound 0.1 µM, first compound 3.16 µM): 91.9%
- viability, T/C (second compound 0.1 µM, first compound 10 µM): 77.6%
- viability, T/C [15]: 82%
- viability, T/C [16]: 78.9%
- viability, T/C (second compound 0.316 µM, first compound 0.316 µM): 77%
- viability, T/C (second compound 0.316 µM, first compound 1 µM): 76.1%
- viability, T/C (second compound 0.316 µM, first compound 3.16 µM): 79.8%
- viability, T/C (second compound 0.316 µM, first compound 10 µM): 70%
- viability, T/C [17]: 76.3%
- viability, T/C [18]: 67.9%
- viability, T/C (second compound 1 µM, first compound 0.316 µM): 75.5%
- viability, T/C (second compound 1 µM, first compound 1 µM): 70%
- viability, T/C (second compound 1 µM, first compound 3.16 µM): 71.2%
- viability, T/C (second compound 1 µM, first compound 10 µM): 54.7%

- IC50 (curve of compound): 7.22 µM [middle of 4 runs]
Structure (SMILES): Cn1ncc(Cl)c1-c1cc(C(=O)NC(CN)Cc2cccc(F)c2)sc1Cl (stereo not drawn)
- viability, T/C (compound 0.0316 µM): 105% [middle of 4 runs]
- viability, T/C (compound 0.1 µM): 98.2% [middle of 4 runs]
- viability, T/C (compound 0.316 µM): 96.1% [middle of 4 runs]
- viability, T/C (compound 1 µM): 87.7% [middle of 4 runs]
- viability, T/C (compound 3.16 µM): 77.1% [middle of 4 runs]
- viability, T/C (compound 10 µM): 39.5% [middle of 4 runs]

Source: PubChem BioAssay AID1963970 (Molecular Pharmacology Branch, DTP, NCI, 2024)
